Patent US8519121B2, “Dextran for treating lung cancer” (Guangzhou Konzern Pharmaceutical Co., Ltd., priority 2008, dated 2013)

Key:
Assay type in all cases: cell-based
[1] = test system: human small cell lung cancer (NCl-H446); experiment: Anchorage-dependent cell growth capacity, plate cloning method, NCl-H446; conditions: NCI-H446, plate cloning method, 7 days, 0.1 μg/ml; for Number of Colonies: n = 9, X ± SD
Experimental: (§1) Human lung cancer cell (A549), purchased from cell center of Xiangya School of Medicine, Central South University. Human small cell lung cancer (NCl-H446) and Chinese Hamster Lung Epithelial cells (CHL), purchased from Shanghai Institute of Biochemistry and Cell Biology, Chinese Academy of Sciences. Culture condition: RPMI 1640 medium with 10% bovine serum, 37° C., 5% CO2. Take the logarithmic phase cell for the following experiment.
(§2) Preparing suspension of human lung cancer cell (A549) and human small cell lung cancer (NCl-H446), adjust to 0.3×10^3 cells/ml. In each hole, cell suspension […], and sample 0.2 ml, and control solution 0.2 ml. The final concentration of KY-1-1 is 0.1 μg/ml, 0.3 μg/ml, 1.0 μg/ml, 3.0 μg/ml, 10.0 μg/ml and 30.0 μg/ml, and the final concentration of DDP and TAX are both 0.1 μg/ml, add the same volume medium into the control group. Three holes in each group, seed in 24-microplate, incubate in CO2 for 7 days. Add 95% methanol 0.5 ml into each hole, fixed for 15 minutes, and Giemsa staining for 10-30 minutes. The number of cells in a colony is more than 50, or the diameter of the colony is more than 75 μm. Count the number of colonies in each hole, calculate the mean and record it. Calculate the colony inhibition ratio (CIR) with the following equation: CIR(%)=(1−mean of number of colony of dextran group/mean of number of colony of control group)×100%.
(§3) The plate efficiency (PE) is calculated with the following equation: PE=mean of number of colony/number of seeded cells×100%,
(§4) wherein IC50 is calculated by Calcus Zn procedure.
(§5) Repeat the above experiment twice.
(§6) Experiment data is expressed by X±SD, and use the software SPSS 15.0 Evaluation for windows to carry out One Way ANOVA analysis, and the analysis of variance uses the LSD method and SNK method. The result is compared by Student's test, there is statistic marked difference under the condition of […].

[2] = test system: human lung cancer cell (A549); experiment: Anchorage-independent cell growth (cell colony forming capacity in agar), A549; conditions: 7 days, 0.1 μg/ml; for Number of Colonies: n = 9, X ± SD
Experimental: as §1
(§7) Take 24-microplate, add 0.6% agar medium 0.5 ml in each hole. Preparing suspension of human lung cancer cell (A549) and human small cell lung cancer (NCl-H446), adjust to 1.6×10^3 cells/ml. In each hole, cell suspension 1.6 ml, and sample 0.2 ml, and control solution 0.2 ml. The final concentration of KY-1-1 is 0.1 μg/ml, 0.3 μg/ml, 1.0 μg/ml, 3.0 μg/ml, 10.0 μg/ml and 30.0 μg/ml, and the final concentration of DDP and TAX are both 0.1 μg/ml. DDP 0.2 ml, and TAX 0.2 ml. Add the same volume medium into the control group. Three holes in each group, after mixing with 0.3% agar 0.2 ml, seed in 24-microplate 0.5 ml/hole, incubate in CO2 for 7 days. The number of cells in a colony is more than 50, or the diameter of the colony is more than 75 μm. Count the number of colonies in each hole, calculate the mean and record it. Calculate the colony inhibition ratio (CIR) with the following equation: CIR(%)=(1−mean of number of colony of dextran group/mean of number of colony of control group)×100%.
as §3, §4, §5, §6

[3] = test system: human small cell lung cancer (NCl-H446); experiment: MTT cell proliferation, human small cell lung cancer (NCl-H446); conditions: NCI-H446 cells, 48 hours, 0.1 μg/ml; for A570: n = 9, X ± SD
Experimental: as §1
(§8) Weight 3.8 g KY-1-1 into 10 ml bottle, dissolve with DMSO, and then dilute with normal saline (N.S.) to 300.0 μg/ml, 100.0 μg/ml, 30.0 μg/ml, 10.0 μg/ml, 3.0 μg/ml, 1.0 μg/ml, put into 2 ml EP tube separately, preserve in 4° C.
(§9) Injection Cisplatin (DDP), purchased from Qilu Pharmaceutical Co., Ltd., 10 mg/bottle, batch number 6030052 DB, dissolve with normal saline, dilute to 100.0 μg/ml, 10.0 μg/ml and 1.0 μg/ml.
(§10) Taxol (TAX), purchased from Beijing Sihuan Pharmaceutical Technology Stock Company, 30 mg/5 ml/bottle, batch number 060830, dissolve with normal saline, dilute to 100.0 μg/ml, 10.0 μg/ml and 1.0 μg/ml. • (2) Method
(§11) Preparing suspension of human lung cancer cell (A549), human small cell lung cancer (NCl-H446) and Chinese Hamster Lung Epithelial cells (CHL), adjust to 0.5×10^4 cells/ml, seed in 96-microplate, 180 μl/hole. After cell adhesion (about 12 hours), add sample and control solution 20 μl separately into each hole, adjust the final concentration of KY-1-1 to 0.1 μg/ml, 0.3 μg/ml, 1.0 μg/ml, 3.0 μg/ml, 10.0 μg/ml and 30.0 μg/ml, and the final concentration of DDP and TAX are both 0.1 μg/ml, incubate for 48 hours, and then add MTT (5 mg/ml, MTT:PBS) 20 μl to each hole, incubate for 6 hours, remove the liquid in each hole, and then add DMSO 100 μl to each hole in order to dissolve the purple blue precipitate, then detect the absorbency (A) in 570 nm by an enzyme-labeled instrument EXL-800. Calculate the inhibition ratio (IR) with the following equation: IR(%)=(1−mean of A of dextran group/mean of A of control group)×100%.
(§12) The selective index (SI) of cytotoxicity of the dextran is calculated with the following equation: SI═IC50(CHL cells)/IC50(A549 cells or NCl-H446 cells),
as §4, §5, §6

[4] = test system: human small cell lung cancer (NCl-H446); experiment: Anchorage-independent cell growth (cell colony forming capacity in agar), NCl-H446; conditions: NCI-H446, colony forming in agar, 7 days, 0.1 μg/ml; for Number of Colonies: n = 9, X ± SD
Experimental: as §1, §7, §3, §4, §5, §6

[5] = test system: human lung cancer cell (A549); experiment: Anchorage-dependent cell growth capacity, plate cloning method, A549; conditions: 7 days, 0.1 μg/ml; for Number of Colonies: n = 9, X ± SD
Experimental: as §1, §2, §3, §4, §5, §6

[6] = test system: Chinese Hamster Lung Epithelial cells (CHL); experiment: MTT cell proliferation, Chinese Hamster Lung Epithelial cells (CHL); conditions: 48 hours, 0.1 μg/ml; for A570: n = 9, X ± SD
Experimental: as §1, §8, §9, §10, §11, §12, §4, §5, §6

[7] = test system: human lung cancer cell (A549); experiment: MTT cell proliferation, human lung cancer (A549); conditions: A549 cells, 48 hours, 0.1 μg/ml; for A570: n = 9, X ± SD
Experimental: as §1, §8, §9, §10, §11, §12, §4, §5, §6

SMILES	IR (%) [1]	Number of Colonies [1]	IR (%) [2]	Number of Colonies [2]	IR (%) [3]	A570 [3]	IR (%) [4]	Number of Colonies [4]	IR (%) [5]	Number of Colonies [5]	IR (%) [6]	A570 [6]	IR (%) [7]	A570 [7]
N.N.[Cl][Pt][Cl] [DDP, Cisplatin]	78.44%	23.33 ± 4.18	77.05%	14.00 ± 2.00	77.89%	0.36 ± 0.03	75.98%	17.00 ± 2.74	75.82%	23.89 ± 4.43	76.35%	1.41 ± 0.30	76.35%	0.37 ± 0.03
CC(=O)O[C@H]1C(=O)[C@@]2(C)[C@H]([C@H](OC(=O)c3ccccc3)[C@]3(O)C[C@H](OC(=O)[C@H](O)[C@@H](NC(=O)c4ccccc4)c4ccccc4)C(C)=C1C3(C)C)[C@]1(OC(C)=O)CO[C@@H]1C[C@@H]2O [TAX, Taxol]	82.34%	19.11 ± 2.57	83.61%	10.00 ± 1.87	83.54%	0.27 ± 0.01	84.46%	11.00 ± 1.58	82.00%	17.78 ± 2.05	83.13%	1.25 ± 0.14	83.13%	0.27 ± 0.03
